Source: the supplement of paper PMC10307832

Legend:
Assay in all cases: relative viability (nuclei count vs DMSO), 5 days (fraction); higher = more cells survive
[1] = compound: C1CNCCC1C2=CC(=NN2)C3=CC=NC=C3 + COc1cccc2cc(-c3nc([C@H]4CC[C@H](C(=O)O)CC4)n4ncnc(N)c34)[nH]c12 [OSI-027] (partner 0.5 µM)
Outline: (§1)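 Relative viability divides the nuclei count in treated wells by that in vehicle wells. Lung cancer cell lines were seeded in 1536-well plates, dosed by pin tool the next day, and fixed and stained after 5 days in one step with final 0.05% Triton X-100, 1% formaldehyde and 1 ug/ml Hoechst. Dosing was a single drug or a fixed anchor-drug dose plus five library-drug doses (not always all listed) in √10 steps, and values are medians of duplicate plates imaged at 4×.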

Tanzisertib + Navitoclax = compound: O[C@H]1CC[C@H](Nc2ncc3nc(Nc4c(F)cc(F)cc4F)n([C@H]4CCOC4)c3n2)CC1 [Tanzisertib] + CC1(C)CCC(c2ccc(Cl)cc2)=C(CN2CCN(c3ccc(C(=O)NS(=O)(=O)c4ccc(N[C@H](CCN5CCOCC5)CSc5ccccc5)c(S(=O)(=O)C(F)(F)F)c4)cc3)CC2)C1 [Navitoclax] (partner 0.5 µM)
Outline: as §1

Tanzisertib + Phenformin = compound: O[C@H]1CC[C@H](Nc2ncc3nc(Nc4c(F)cc(F)cc4F)n([C@H]4CCOC4)c3n2)CC1 [Tanzisertib] + N=C(N)NC(=N)NCCc1ccccc1 [Phenformin] (partner 250 µM)
Outline: as §1

Tanzisertib + Olaparib = compound: O[C@H]1CC[C@H](Nc2ncc3nc(Nc4c(F)cc(F)cc4F)n([C@H]4CCOC4)c3n2)CC1 [Tanzisertib] + O=C(c1cc(Cc2n[nH]c(=O)c3ccccc23)ccc1F)N1CCN(C(=O)C2CC2)CC1 [Olaparib] (partner 8 µM)
Outline: as §1

UMC-11
relative viability ([1]; first compound 0.08 µM): 0.452
relative viability ([1]; first compound 0.8 µM): 0.537
relative viability ([1]; first compound 2.53 µM): 0.459
relative viability ([1]; first compound 8 µM): 0.553
relative viability (Tanzisertib + Navitoclax; first compound 0.08 µM): 0.33
relative viability (Tanzisertib + Navitoclax; first compound 0.253 µM): 0.319
relative viability (Tanzisertib + Navitoclax; first compound 0.8 µM): 0.362
relative viability (Tanzisertib + Navitoclax; first compound 2.53 µM): 0.342
relative viability (Tanzisertib + Navitoclax; first compound 8 µM): 0.392
relative viability (Tanzisertib + Phenformin; first compound 0.08 µM): 0.339
relative viability (Tanzisertib + Phenformin; first compound 0.253 µM): 0.35
relative viability (Tanzisertib + Phenformin; first compound 0.8 µM): 0.342
relative viability (Tanzisertib + Phenformin; first compound 2.53 µM): 0.351
relative viability (Tanzisertib + Phenformin; first compound 8 µM): 0.37
relative viability (Tanzisertib + Olaparib; first compound 0.08 µM): 0.355
relative viability (Tanzisertib + Olaparib; first compound 0.253 µM): 0.412
relative viability (Tanzisertib + Olaparib; first compound 0.8 µM): 0.411
relative viability (Tanzisertib + Olaparib; first compound 2.53 µM): 0.501
relative viability (Tanzisertib + Olaparib; first compound 8 µM): 0.388
